Reference: US10228358B2, “Apparatus and method for the assessment of concentration profiling and permeability rates” (Pion Inc., priority 2015, dated 2019)
Values after ≈ are worked out from the molar mass of the structure shown.

Assays:
[1] = Permeability in concentric nested donor/receiver arrangement with PAMPA membrane; format: in vitro ADME; settings: in situ UV fiber optic, read-out: Peff (effective permeability coefficient)
Experimental: A concentric nested arrangement was used to study permeability of several compounds. The membrane was a PAMPA membrane and experiments were performed with and without Acceptor Sink Buffer™ on the acceptor sink side. Concentrations measurements were taken using in situ UV fiber optic system Pion Spectra™.

[2] = In vitro dissolution-permeation of aripiprazole forms on μFLUX; format: in vitro ADME
Experimental: In the case of buccal drug delivery, the donor chamber represented the oral cavity, the artificial membrane the oral mucosa, while the acceptor chamber represented the blood circulation. At first […] of n-dodecane was dribbled on the membrane surface, then 20 mL of pH 6.8 phosphate buffer was added into the donor chamber, and 20 mL of sink buffer was added into the acceptor chamber. […] Samples equivalent to 20 mg of ARP were placed in the donor chamber. Both chambers were stirred at 200 rpm at room temperature, using stirring devices 87 and 89. The temperature was controlled via elements 91. In both chambers the API concentration was followed by UV-spectrophotometry at 252 nm. Suitable probes for the spectroscopic measurements (not shown in FIG. 12) were introduced through openings 93 and 95.
The flux across the membrane was calculated using the following equation:
[formula] where the flux (J) of a drug through the membrane is defined as the amount (n) of drug crossing a unit area (A) perpendicular to its flow per unit time (t).
The API concentration profiles in the donor and acceptor vessels (1000 mg/L max concentration, 0.025 mol/dm^3 KH2PO4 buffer in the donor compartment, n-dodecane membrane, sink buffer as acceptor, 150 rpm, 25° C.) are presented, respectively, in FIGS. 13A and 13B.

physchem = settings: aqueous buffer
Experimental: In the case of buccal drug delivery, the donor chamber represented the oral cavity, the artificial membrane the oral mucosa, while the acceptor chamber represented the blood circulation. At first 75 mL of n-dodecane was dribbled on the membrane surface, then 20 mL of pH 6.8 phosphate buffer was added into the donor chamber, and 20 mL of sink buffer was added into the acceptor chamber. […] Both chambers were stirred at 200 rpm at room temperature, using stirring devices 87 and 89. The temperature was controlled via elements 91. In both chambers the API concentration was followed by UV-spectrophotometry at 252 nm. Suitable probes for the spectroscopic measurements (not shown in FIG. 12) were introduced through openings 93 and 95.
The in vitro dissolution-absorption studies were carried out using a μFLUX™ (Pion Inc., Billerica Mass., U.S.A.), a schematic diagram of which is shown in FIG. 12. The apparatus included a donor and an acceptor chamber (20 mL volume) separated by an artificial membrane (PVDF, polyvinylidenefluoride, 0.45 μm, 1.54 cm^2). In the case of oral drug delivery, the donor chamber represents the gastrointestinal tract, while the acceptor chamber represents the blood circulation. […]

| Compound | Papp [1] [×10⁻⁶ cm/s] | API dissolved during the biorelevant time ([2]; 30-60 min, donor chamber) [%] | flux during the first 25 min ([2]; n-dodecane membrane, sink buffer acceptor) [μg/h×cm^2] | solubility (physchem) [µg/mL] |
| --- | --- | --- | --- | --- |
| Cn1c(=O)c2c(ncn2C)n(C)c1=O [Caffeine] | 257 |  |  |  |
| CC(=O)Oc1ccccc1C(=O)O [Aspirin] | 331 |  |  |  |
| O=C1CCc2ccc(OCCCCN3CCN(c4cccc(Cl)c4Cl)CC3)cc2N1 [ARP, aripiprazole] |  | 1.5 | 16 | 30 (≈ 66.9 µM) |
